{"source": "patent US20100120700A1", "about": "“METHODS AND COMPOSITIONS FOR TREATING CERVICAL CANCER” (priority 2000, published 2010)", "assay_in_all_cases": "G assay PDZ-PL binding", "settings_in_all_cases": "peptide 10 uM, protein 5", "key": {"DLG2 #290.1 domain 2": {"target": "T1, DLG2 #290.1 domain 2 (Homo sapiens, UniProt Q15700, K278N)", "T1 construct": "made in house; host or cells: E. coli (DH5alpha, BL21 or JM109)", "T1 sequence (Q15700 whole entry, looked up, the tested form differs by isoform, tags, fused parts or gaps, stated change not applied)": "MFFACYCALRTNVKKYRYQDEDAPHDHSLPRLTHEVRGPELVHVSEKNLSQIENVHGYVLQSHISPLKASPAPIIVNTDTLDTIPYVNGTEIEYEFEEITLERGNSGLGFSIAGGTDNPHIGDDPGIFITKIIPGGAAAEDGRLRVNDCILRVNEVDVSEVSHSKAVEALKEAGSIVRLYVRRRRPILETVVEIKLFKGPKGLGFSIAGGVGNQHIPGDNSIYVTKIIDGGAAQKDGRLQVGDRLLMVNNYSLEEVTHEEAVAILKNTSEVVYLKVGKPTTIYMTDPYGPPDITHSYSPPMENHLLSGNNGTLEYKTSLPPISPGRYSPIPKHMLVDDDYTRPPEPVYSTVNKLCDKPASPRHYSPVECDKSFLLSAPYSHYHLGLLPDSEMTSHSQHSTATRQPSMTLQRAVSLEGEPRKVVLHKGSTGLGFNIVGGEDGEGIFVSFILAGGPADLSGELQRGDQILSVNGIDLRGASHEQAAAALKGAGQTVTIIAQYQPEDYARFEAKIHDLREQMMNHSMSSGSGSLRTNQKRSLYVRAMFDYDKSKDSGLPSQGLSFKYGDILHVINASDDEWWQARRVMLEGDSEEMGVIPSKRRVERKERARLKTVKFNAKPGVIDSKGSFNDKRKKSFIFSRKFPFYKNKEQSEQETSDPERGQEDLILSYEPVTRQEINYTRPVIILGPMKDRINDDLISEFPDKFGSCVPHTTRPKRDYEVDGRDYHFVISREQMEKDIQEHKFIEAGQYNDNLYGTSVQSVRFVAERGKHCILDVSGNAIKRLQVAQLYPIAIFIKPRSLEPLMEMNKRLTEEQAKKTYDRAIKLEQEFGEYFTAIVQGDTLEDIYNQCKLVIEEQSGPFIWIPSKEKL", "description": "(§1) (1) A PDZ-domain polypeptide is bound to a surface, e.g. a protein binding surface. In a preferred embodiment, a GST/PDZ fusion protein containing one or more PDZ domains is bound to a polystyrene 96-well plate. […] In one embodiment, the GST/PDZ fusion protein is bound via an anti-GST antibody that is coated onto the 96-well plate. Adequate binding to the plate can be achieved when: • a. 100 uL per well of 5 ug/mL goat anti-GST polyclonal antibody (Pierce) in PBS is added to a polystyrene 96-well plate (e.g., Num Polysorb) at 4° C. for 12 hours. • b. The plate is blocked by addition of 200 uL per well of PBS/BSA for 2 hours at 4° C. • c. The plate is washed 3 times with PBS. • d. 50 uL per well of 5 ug/mL GST/PDZ fusion protein) or, as a negative control, GST polypeptide alone (i.e. not a fusion protein) in PBS/BSA is added to the plate for 2 hours at 4° C. • e. The plate is again washed 3 times with PBS.\n(§2) (2) Biotinylated PL peptides are allowed to react with the surface by addition of 50 uL per well of 20 uM solution of the biotinylated peptide in PBS/BSA for 10 minutes at 4° C., followed by an additional 20 minute incubation at 25° C.\n(§3) (3) The binding of the biotinylated peptide to the GST/PDZ fusion protein surface can be detected using a variety of methods and detectors known to one of skill in the art. In one embodiment, 100 uL per well of 0.5 ug/mL streptavidin-horse radish peroxidase (HRP) conjugate dissolved in BSA/PBS is added and allowed to react for 20 minutes at 4° C. The plate is then washed 5 times with 50 mM Tris pH 8.0 containing 0.2% Tween 20, and developed by addition of 100 uL per well of HRP-substrate solution (TMB, Dako) for 20 minutes at room temperature (RT). The reaction of the HRP and its substrate is terminated by addition of 100 uL per well of 1M sulfuric acid, and the absorbance of each well of the plate is read at 450 nm.\n(§4) (4) Specific binding of a PL peptide and a PDZ domain polypeptide is determined by comparing the signal from the well(s) in which the PL peptide and PDZ domain polypeptide are combined, with the background signal(s). The background signal is the signal found in the negative control(s). Typically a specific or selective reaction will be at least twice background signal, more typically more than 5 times background, and most typically 10 or more times the background signal. In addition, a statistically significant reaction will involve multiple measurements of the reaction with the signal and the background differing by at least two standard errors, more typically four standard errors, and most typically six or more standard errors. Correspondingly, a statistical test (e.g. a T-test) comparing repeated measurements of the signal with-repeated measurements of the background will result in a p-value<0.05, more typically a p-value<0.01, and most typically a p-value<0.001 or less. As noted, in an embodiment of the “G” assay, the signal from binding of a given PL peptide to immobilized (surface bound) GST polypeptide alone is one suitable negative control (sometimes referred to as “B 1”). Because all measurement are done in multiples (i.e. at least duplicate) the arithmetic mean (or, equivalently, average.) of several measurements is used in determining the binding, and the standard error of the mean is used in determining the probable error in the measurement of the binding. The standard error of the mean of N measurements equals the square root of the following: the sum of the squares of the difference between each measurement and the mean, divided by the product of (N) and (N−1). Thus, in one embodiment, specific binding of the PDZ protein to the platebound peptide is determined by comparing the mean signal (“mean S”) and standard error of the signal (“SE”) for a particular PL-PDZ combination with the mean B1. […]"}, "INADL domain 8": {"target": "T2, INADL domain 8 (Homo sapiens, UniProt Q8NI35)", "T2 construct": "made in house; host or cells: E. coli (DH5alpha or BL-21)", "T2 sequence (Q8NI35 1425-1517)": "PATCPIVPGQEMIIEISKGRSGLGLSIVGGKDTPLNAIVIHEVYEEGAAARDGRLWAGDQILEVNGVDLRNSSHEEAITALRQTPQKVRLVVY", "description": "as §1, §2, §3, §4"}, "KIAA0382 domain 1": {"target": "T3, KIAA0382 domain 1 (Homo sapiens, UniProt Q9NZN5)", "T3 construct": "made in house; host or cells: E. coli (DH5alpha, BL21 or JM109), vector pGEX-3X", "T3 sequence (Q9NZN5 with tags, fused parts or gaps)": "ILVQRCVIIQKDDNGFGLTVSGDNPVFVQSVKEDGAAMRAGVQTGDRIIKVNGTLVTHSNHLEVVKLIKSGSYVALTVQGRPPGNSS", "description": "as §1, §2, §3, §4"}, "KIAA0751 domain 1": {"target": "T4, KIAA0751 domain 1 (Homo sapiens, UniProt Q9UQ26)", "T4 construct": "made in house; host or cells: E. coli (DH5alpha, BL21 or JM109)", "T4 sequence (Q9UQ26 with tags, fused parts or gaps)": "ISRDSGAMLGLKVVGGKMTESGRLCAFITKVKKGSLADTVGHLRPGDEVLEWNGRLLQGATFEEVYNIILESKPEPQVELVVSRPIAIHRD", "description": "as §1, §2, §3, §4"}, "KIAA0973 #288.2 domain 1": {"target": "T5, KIAA0973 #288.2 domain 1 (Homo sapiens, UniProt Q9Y2H9)", "T5 construct": "made in house; host or cells: E. coli (DH5alpha, BL21 or JM109)", "T5 sequence (Q9Y2H9 963-1055)": "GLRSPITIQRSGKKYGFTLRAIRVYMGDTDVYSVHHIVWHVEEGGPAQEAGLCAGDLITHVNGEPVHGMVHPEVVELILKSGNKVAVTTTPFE", "description": "as §1, §2, §3, §4"}, "KIAA1284 domain 1": {"target": "T6, KIAA1284 domain 1 (Homo sapiens, UniProt Q9ULD6)", "T6 construct": "made in house; host or cells: E. coli (DH5alpha, BL21 or JM109)", "T6 sequence (Q9ULD6 159-271)": "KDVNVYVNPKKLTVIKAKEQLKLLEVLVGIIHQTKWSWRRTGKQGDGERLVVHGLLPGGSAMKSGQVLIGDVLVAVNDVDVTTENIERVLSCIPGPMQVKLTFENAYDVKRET", "description": "as §1, §2, §3, §4"}, "MAGI 1 domain 5": {"target": "T7, MAGI 1 domain 5 (Homo sapiens, UniProt Q96QZ7)", "T7 construct": "made in house; host or cells: E. coli (DH5alpha, BL21 or JM109)", "T7 sequence (Q96QZ7 988-1099)": "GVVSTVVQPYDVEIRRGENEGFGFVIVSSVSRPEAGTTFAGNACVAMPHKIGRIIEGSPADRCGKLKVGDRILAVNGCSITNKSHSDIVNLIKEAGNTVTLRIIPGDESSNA", "description": "as §1, §2, §3, §4"}, "Magi2 domain 5": {"target": "T8, Magi2 domain 5 (Homo sapiens, UniProt Q86UL8)", "T8 construct": "made in house; host or cells: E. coli (DH5alpha, BL21 or JM109), vector pGEX-3X", "T8 sequence (Q86UL8 1134-1231)": "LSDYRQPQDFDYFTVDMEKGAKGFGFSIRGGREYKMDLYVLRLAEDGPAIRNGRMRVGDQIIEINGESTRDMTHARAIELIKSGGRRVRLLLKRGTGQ", "description": "as §1, §2, §3, §4"}, "NOS1 domain 1": {"target": "T9, NOS1 domain 1 (Homo sapiens, UniProt P29475)", "T9 construct": "made in house; host or cells: E. coli (DH5alpha, BL21 or JM109)", "T9 sequence (P29475 11-100)": "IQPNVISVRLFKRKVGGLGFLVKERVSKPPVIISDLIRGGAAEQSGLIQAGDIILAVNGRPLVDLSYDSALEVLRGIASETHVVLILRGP", "description": "as §1, §2, §3, §4"}, "Outer Membrane domain 1": {"target": "T10, Outer Membrane domain 1 (Homo sapiens, UniProt P57105)", "T10 construct": "made in house; host or cells: E. coli (DH5alpha, BL21 or JM109)", "T10 sequence (P57105 with tags, fused parts or gaps)": "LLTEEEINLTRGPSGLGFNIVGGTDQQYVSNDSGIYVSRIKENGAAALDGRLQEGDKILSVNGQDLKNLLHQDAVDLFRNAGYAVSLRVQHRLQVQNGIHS", "description": "as §1, §2, §3, §4"}, "PSD95 domain 1, 2, 3": {"target": "T11, PSD95 domain 1, 2, 3 (Homo sapiens, UniProt P78352)", "T11 construct": "the DNA portion cloned represents the PDZ domains and the cDNA portion located between individual domains; made in house; host or cells: E. coli (DH5alpha, BL21 or JM109)", "T11 sequence (P78352 62-395)": "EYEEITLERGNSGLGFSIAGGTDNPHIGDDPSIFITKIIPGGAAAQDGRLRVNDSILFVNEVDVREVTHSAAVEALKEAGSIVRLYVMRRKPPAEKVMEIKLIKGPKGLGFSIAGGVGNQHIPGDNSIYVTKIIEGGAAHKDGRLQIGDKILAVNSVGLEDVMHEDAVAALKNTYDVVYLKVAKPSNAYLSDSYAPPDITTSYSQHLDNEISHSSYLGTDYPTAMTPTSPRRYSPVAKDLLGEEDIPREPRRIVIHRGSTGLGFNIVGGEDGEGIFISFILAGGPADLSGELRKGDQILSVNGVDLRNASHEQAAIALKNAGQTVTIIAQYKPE", "description": "as §1, §2, §3, §4"}, "[1]": {"target": "T12, Syntrophin gamma 1 domain 1 (Homo sapiens, UniProt Q9NSN8)", "T12 construct": "made in house; host or cells: E. coli (DH5alpha, BL21 or JM109), vector pGEX-3X", "T12 sequence (Q9NSN8 49-149)": "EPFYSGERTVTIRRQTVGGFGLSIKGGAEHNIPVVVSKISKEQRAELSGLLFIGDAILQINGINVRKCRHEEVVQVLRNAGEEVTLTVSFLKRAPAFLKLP", "description": "as §1, §2, §3, §4"}, "ZO-2 domain 1": {"target": "T13, ZO-2 domain 1 (Homo sapiens, UniProt Q9UDY2)", "T13 construct": "made in house; host or cells: E. coli (DH5alpha, BL21 or JM109), vector pGEX-3X", "T13 sequence (Q9UDY2 27-122)": "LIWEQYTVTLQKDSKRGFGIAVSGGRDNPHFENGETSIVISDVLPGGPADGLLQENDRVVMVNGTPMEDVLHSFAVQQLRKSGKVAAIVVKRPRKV", "description": "as §1, §2, §3, §4"}, "novel PDZ gene domain 1": {"target": "T14, novel PDZ gene domain 1 (Homo sapiens, UniProt Q9H5P4)", "T14 construct": "made in house; host or cells: E. coli (DH5alpha, BL21 or JM109)", "T14 sequence (Q9H5P4 with tags, fused parts or gaps)": "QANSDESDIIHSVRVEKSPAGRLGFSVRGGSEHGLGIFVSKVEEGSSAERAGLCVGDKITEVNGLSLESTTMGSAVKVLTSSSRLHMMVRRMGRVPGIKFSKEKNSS", "description": "as §1, §2, §3, §4"}}, "note": "“And” between values parts separate entries of the source, which are not always exact repeats. Equal values may be shown once."}
{"substance": "20 mer peptide corresponding to the C-terminus of HPV16 E6 (PDZ ligand), biotinylated in binding assays; ends SSRTRRETQL (SEQ ID NO: 13) [HPV E6 #16]", "values": [{"measurement": "Ave OD", "setting": "DLG2 #290.1 domain 2; A450 nm", "value": "1.784 and 1.439"}, {"measurement": "OD S/N", "setting": "DLG2 #290.1 domain 2; vs GST only well", "value": "9.17 and 13.39"}, {"measurement": "Ave OD", "setting": "INADL domain 8; A450 nm", "value": 0.3875}, {"measurement": "OD S/N", "setting": "INADL domain 8; vs GST only well", "value": 1.58}, {"measurement": "Ave OD", "setting": "KIAA0382 domain 1; A450 nm", "value": "0.712 and 0.6995"}, {"measurement": "OD S/N", "setting": "KIAA0382 domain 1; vs GST only well", "value": "3.61 and 2.66"}, {"measurement": "Ave OD", "setting": "KIAA0751 domain 1; A450 nm", "value": 0.4505}, {"measurement": "OD S/N", "setting": "KIAA0751 domain 1; vs GST only well", "value": 2.10}, {"measurement": "Ave OD", "setting": "KIAA0973 #288.2 domain 1; A450 nm", "value": "2.8295 and 3.85"}, {"measurement": "OD S/N", "setting": "KIAA0973 #288.2 domain 1; vs GST only well", "value": "10.11 and 16.42"}, {"measurement": "Ave OD", "setting": "KIAA1284 domain 1; A450 nm", "value": 0.473}, {"measurement": "OD S/N", "setting": "KIAA1284 domain 1; vs GST only well", "value": 2.72}, {"measurement": "Ave OD", "setting": "MAGI 1 domain 5; A450 nm", "value": "0.4325 and 0.541"}, {"measurement": "OD S/N", "setting": "MAGI 1 domain 5; vs GST only well", "value": "1.77 and 3.12"}, {"measurement": "Ave OD", "setting": "Magi2 domain 5; A450 nm", "value": 0.651}, {"measurement": "OD S/N", "setting": "Magi2 domain 5; vs GST only well", "value": 3.93}, {"measurement": "Ave OD", "setting": "NOS1 domain 1; A450 nm", "value": 0.4775}, {"measurement": "OD S/N", "setting": "NOS1 domain 1; vs GST only well", "value": 2.88}, {"measurement": "Ave OD", "setting": "Outer Membrane domain 1; A450 nm", "value": "2.392 and 1.3595"}, {"measurement": "OD S/N", "setting": "Outer Membrane domain 1; vs GST only well", "value": "11.39 and 6.25"}, {"measurement": "Ave OD", "setting": "PSD95 domain 1, 2, 3; A450 nm", "value": "3.523 and 3.866"}, {"measurement": "OD S/N", "setting": "PSD95 domain 1, 2, 3; vs GST only well", "value": "22.58 and 19.67"}, {"measurement": "Ave OD", "setting": "[1]; A450 nm", "value": "0.3585 and 0.618"}, {"measurement": "OD S/N", "setting": "[1]; vs GST only well", "value": "2.00 and 3.08"}, {"measurement": "Ave OD", "setting": "ZO-2 domain 1; A450 nm", "value": "0.3415 and 0.622"}, {"measurement": "OD S/N", "setting": "ZO-2 domain 1; vs GST only well", "value": "2.11 and 2.56"}, {"measurement": "Ave OD", "setting": "novel PDZ gene domain 1; A450 nm", "value": 0.5455}, {"measurement": "OD S/N", "setting": "novel PDZ gene domain 1; vs GST only well", "value": 1.89}]}
